Reference: US20090192135A1, “Human Niemann Pick C1-Like 1 Gene (NPC1L1) Polymorphisms and Methods of Use Thereof” (SCHERING CORPORATION, priority 2005, published 2009)

Target: T1, NPC1L1 (Homo sapiens, UniProt Q9UHC9)
T1 construct: from tissue; host or cells: small intestine of hypercholesterolemic patients (in vivo, clinical trial)
T1 sequence (Q9UHC9 22-1332 isoform Q9UHC9-2 limits assumed): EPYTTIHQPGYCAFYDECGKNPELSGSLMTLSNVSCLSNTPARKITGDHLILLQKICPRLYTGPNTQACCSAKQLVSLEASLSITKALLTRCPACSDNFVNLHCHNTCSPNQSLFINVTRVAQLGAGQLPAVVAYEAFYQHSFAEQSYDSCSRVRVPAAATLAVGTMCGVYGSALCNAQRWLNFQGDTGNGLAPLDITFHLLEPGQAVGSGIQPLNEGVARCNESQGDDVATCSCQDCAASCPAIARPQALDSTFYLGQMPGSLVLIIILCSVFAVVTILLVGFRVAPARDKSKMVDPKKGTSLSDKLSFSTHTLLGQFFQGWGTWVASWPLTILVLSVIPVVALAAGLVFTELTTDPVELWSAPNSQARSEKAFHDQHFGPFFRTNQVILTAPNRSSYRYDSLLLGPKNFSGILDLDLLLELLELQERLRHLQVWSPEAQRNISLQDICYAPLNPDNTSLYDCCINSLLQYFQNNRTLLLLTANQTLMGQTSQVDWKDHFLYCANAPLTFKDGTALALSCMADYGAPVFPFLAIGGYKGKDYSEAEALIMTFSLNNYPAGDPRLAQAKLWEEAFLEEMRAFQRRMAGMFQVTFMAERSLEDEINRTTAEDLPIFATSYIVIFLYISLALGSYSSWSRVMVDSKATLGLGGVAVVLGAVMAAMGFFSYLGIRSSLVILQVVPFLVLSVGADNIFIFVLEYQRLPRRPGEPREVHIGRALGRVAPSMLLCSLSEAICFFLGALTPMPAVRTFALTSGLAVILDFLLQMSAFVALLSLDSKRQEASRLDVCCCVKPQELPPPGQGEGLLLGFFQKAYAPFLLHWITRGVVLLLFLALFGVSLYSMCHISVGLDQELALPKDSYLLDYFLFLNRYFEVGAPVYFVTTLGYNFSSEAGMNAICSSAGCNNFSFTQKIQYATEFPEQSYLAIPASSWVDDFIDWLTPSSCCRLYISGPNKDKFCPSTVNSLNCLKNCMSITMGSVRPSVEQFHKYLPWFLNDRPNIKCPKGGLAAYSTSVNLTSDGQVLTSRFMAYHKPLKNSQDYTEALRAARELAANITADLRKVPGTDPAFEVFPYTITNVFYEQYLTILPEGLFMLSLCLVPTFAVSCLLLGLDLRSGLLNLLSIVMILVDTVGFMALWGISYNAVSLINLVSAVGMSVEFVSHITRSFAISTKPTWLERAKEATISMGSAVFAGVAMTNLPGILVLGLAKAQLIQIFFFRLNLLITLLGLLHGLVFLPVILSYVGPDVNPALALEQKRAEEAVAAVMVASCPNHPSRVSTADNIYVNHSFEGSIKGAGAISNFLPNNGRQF
Assay: EASE trial: LDL-C response to six weeks of ezetimibe 10 mg/day added to stable statin therapy, analysed by NPC1L1 genotype/haplotype
Format: in vivo
Conditions: for Least-Squares (adjusted) Mean (Stderr), percent change in LDL-C: extreme responders; for Least-Squares adjusted Mean (n/Std error), percent change from baseline LDL-C: EASE cohort N = 1195; for Least-Squares (adjusted) Mean (n,/Stderr), percent change in LDL-C: Extreme responders (<10th or >90th percentile) N = 239
Procedure: Genotyping assays were developed for a number of novel and known common variants with minor allele frequencies greater than 4% that were identified in Example 1. Genetic association analysis was performed with these SNPs in a clinical trial cohort (EASE), described below, to assess whether DNA sequence variants in NPC1L1 are associated with changes in the levels of a variety of plasma cholesterol components in hypercholesterolemia patients in response to pharmacotherapy with ezetimibe and statins as compared to patients treated with a statin and placebo.
To study whether variations in NPC1L1 were associated with response to ezetimibe added to statin therapy, a study population was derived from the Ezetimibe Add-On to Statin for Effectiveness (EASE) Trial (Pearson et al., (2005) Mayo Clinic Proceedings, In Press). The EASE trial was a community-based, randomized, double-blind, placebo controlled study to evaluate the effects of six weeks of ezetimibe, 10 mg/day, added on to a stable regimen of statin therapy, on lipid biomarkers in hypercholesterolemic patients whose LDL-C levels exceeded the National Cholesterol Education Program (NCEP) Adult Treatment Panel (ATP) m guidelines for their coronary heart disease (CHD) risk category. At enrollment, patients taking a stable dose of statin (any dose, any brand) and following a NCEP Step 1 diet or similar cholesterol-lowering diet for at least six weeks prior to entry into the study were randomized to either the ezetimibe (n=2020, 2009 received the treatment) or placebo (n=1010, 1009 received the treatment) arm. From the ezetimibe group, 1208 patients provided consent for genomic analysis and were included in this study. A series of clinical measures corresponding to various cardiovascular risk factors were measured from samples obtained from all trial participants and are summarized by Pearson et al., supra.
Twenty one SNPs from Table 4 (Example 1) were converted to valid genotyping assays, thirteen of which had allele frequencies greater than 2% in all EASE sub-populations. TaqMan Allelic Discrimination assays (Livak, (1999) Genet. Anal. 14:143-49) were performed using Primer Express software and the Assay-by-Design service offered by Applied Biosystems (Foster City, Calif.). […] All probe/primer sets were designed to function using universal reaction and cycling conditions.
The twenty one selected SNPs were genotyped in 1,208 individuals participating in the ezetimibe+statin treatment arm of the EASE trial. A series of clinical measures corresponding to various cardiovascular risk factors were taken on all trial participants (Tables 4a-d). Thirteen selected SNPs genotyped in the EASE cohort were confirmed as having common allele frequencies in this cohort, i.e., an allele frequency of greater than 2% in all EASE sub-populations. […] This could reflect the increased power in the larger EASE cohort to make such detections (see Table 5).
The mean (SD) for total plasma cholesterol, HDL cholesterol (HDL-C), and LDL cholesterol (LDL-C) was 211.0 (34.9), 48.6 (11.5), and 129.1 (30.0) mg/dL, respectively (Pearson et al., supra). […] The distribution of these measurements was similar in the subjects enrolled in this genetic study (Pearson et al., supra). […] No significant associations were found between these response predictive variables and any of the tagging SNPs.
Genetic association analysis was carried out in the EASE cohort with LDL-C response to ezetimibe treatment considered as the primary outcome variable. Individual SNPs, haplotypes, and haplotype combinations were the principal explanatory variables used in the analyses. General linear models were used to estimate the effects of genotypes, haplotypes, and diplotypes on the LDL-C response phenotype. Baseline LDL-C levels, sex, age, and race were investigated to determine if they gave rise to significant effects. Baseline LDL-C levels associated with significant effects in all models and were therefore included in all analyses. […]

[1] = Caucasian ethnic subgroup, g.-18C > A C/A

Structure (SMILES): O=C1[C@H](CC[C@H](O)c2ccc(F)cc2)[C@@H](c2ccc(O)cc2)N1c1ccc(F)cc1 [ezetimibe, 1-(4-fluorophenyl)-3(R)-[3-(4-fluorophenyl)-3(S)-hydroxypropyl]-4(S)-(4-hydroxyphenyl)-2-azetidinone]
- Least-Squares (adjusted) Mean (Stderr), percent change in LDL-C [1]: −32.81 (3.83) %
- Least-Squares (adjusted) Mean (Stderr), percent change in LDL-C (Caucasian ethnic subgroup, g.1679C > G C/G): −26.61 (3.58) %
- Least-Squares (adjusted) Mean (Stderr), percent change in LDL-C (Caucasian ethnic subgroup, g.1679C > G G/G): −39.00 (10.81) %
- Least-Squares adjusted Mean (Std error), percent change from baseline LDL-C (Caucasian ethnic subgroup, g.-18C > A A/A): −27.19 (3.49) %
- Least-Squares adjusted Mean (Std error), percent change from baseline LDL-C [1]: −28.22 (0.96) %
- Least-Squares adjusted Mean (Std error), percent change from baseline LDL-C (Caucasian ethnic subgroup, g.-18C > A C/C): −24.34 (0.60) %
- Odds Ratio, extreme responder association with SNP (Caucasian ethnic subgroup, g.-18C > A, 95% CI 1.27 to 4.39): 2.36
- Least-Squares adjusted Mean (Std error), percent change from baseline LDL-C (Caucasian ethnic subgroup, g.-133A > G A/A): −26.59 (0.73) %
- Least-Squares adjusted Mean (Std error), percent change from baseline LDL-C (Caucasian ethnic subgroup, g.-133A > G A/G): −24.78 (0.77) %
- Least-Squares adjusted Mean (Std error), percent change from baseline LDL-C (Caucasian ethnic subgroup, g.-133A > G G/G): −22.80 (1.72) %
- Least-Squares adjusted Mean (Std error), percent change from baseline LDL-C (Caucasian ethnic subgroup, g.1679C > G (L272L) C/C): −24.66 (0.65) %
- Least-Squares adjusted Mean (Std error), percent change from baseline LDL-C (Caucasian ethnic subgroup, g.1679C > G (L272L) C/G): −26.58 (0.85) %
- Least-Squares adjusted Mean (Std error), percent change from baseline LDL-C (Caucasian ethnic subgroup, g.1679C > G (L272L) G/G): −28.18 (2.51) %
- Least-Squares adjusted Mean (Std error), percent change from baseline LDL-C (Caucasian ethnic subgroup, g.19224G > A A/A): −31.64 (6.56) %
- Least-Squares adjusted Mean (Std error), percent change from baseline LDL-C (Caucasian ethnic subgroup, g.19224G > A G/A): −24.81 (1.31) %
- Least-Squares adjusted Mean (Std error), percent change from baseline LDL-C (Caucasian ethnic subgroup, g.19224G > A G/G): −25.56 (0.55) %
- Least-Squares adjusted Mean (Std error), percent change from baseline LDL-C (Caucasian ethnic subgroup, g.19259T > C C/C): −24.95 (2.01) %
- Least-Squares adjusted Mean (Std error), percent change from baseline LDL-C (Caucasian ethnic subgroup, g.19259T > C T/C): −25.61 (0.84) %
- Least-Squares adjusted Mean (Std error), percent change from baseline LDL-C (Caucasian ethnic subgroup, g.19259T > C T/T): −25.44 (0.67) %
- Least-Squares adjusted Mean (Std error), percent change from baseline LDL-C (Caucasian ethnic subgroup, g.28650A > G A/A): −24.63 (0.64) %
- Least-Squares adjusted Mean (Std error), percent change from baseline LDL-C (Caucasian ethnic subgroup, g.28650A > G A/G): −26.90 (0.87) %
- Least-Squares adjusted Mean (Std error), percent change from baseline LDL-C (Caucasian ethnic subgroup, g.28650A > G G/G): −26.52 (2.57) %
- Least-Squares adjusted Mean (n/Std error), percent change from baseline LDL-C (g.-18C > A A/A): −27.27 (22/3.61) %
- Least-Squares adjusted Mean (n/Std error), percent change from baseline LDL-C (g.-18C > A C/A): −27.85 (298/0.98) %
- Least-Squares adjusted Mean (n/Std error), percent change from baseline LDL-C (g.-18C > A C/C): −24.16 (875/0.57) %
- Least-Squares adjusted Mean (n/Std error), percent change from baseline LDL-C (g.-133A > G A/A): −25.92 (629/0.68) %
- Least-Squares adjusted Mean (n/Std error), percent change from baseline LDL-C (g.-133A > G A/G): −24.58 (477/0.78) %
- Least-Squares adjusted Mean (n/Std error), percent change from baseline LDL-C (g.-133A > G G/G): −22.56 (89/1.80) %
- Least-Squares adjusted Mean (n/Std error), percent change from baseline LDL-C (g.1679C > G C/C): −24.50 (723/0.63) %
- Least-Squares adjusted Mean (n/Std error), percent change from baseline LDL-C (g.1679C > G C/G): −25.77 (417/0.83) %
- Least-Squares adjusted Mean (n/Std error), percent change from baseline LDL-C (g.1679C > G G/G): −28.77 (55/2.29) %
- Least-Squares adjusted Mean (n/Std error), percent change from baseline LDL-C (g.19224G > A A/A): −31.64 (/6.94) %
- Least-Squares adjusted Mean (n/Std error), percent change from baseline LDL-C (g.19224G > A G/A): −25.07 (/1.34) %
- Least-Squares adjusted Mean (n/Std error), percent change from baseline LDL-C (g.19224G > A G/G): −25.11 (/0.53) %
- Least-Squares adjusted Mean (n/Std error), percent change from baseline LDL-C (g.19259T > C C/C): −26.38 (/1.98) %
- Least-Squares adjusted Mean (n/Std error), percent change from baseline LDL-C (g.19259T > C T/C): −25.01 (/0.82) %
- Least-Squares adjusted Mean (n/Std error), percent change from baseline LDL-C (g.19259T > C T/T): −25.07 (/0.64) %
- Least-Squares adjusted Mean (n/Std error), percent change from baseline LDL-C (g.28650A > G A/A): −24.40 (/0.60) %
- Least-Squares adjusted Mean (n/Std error), percent change from baseline LDL-C (g.28650A > G A/G): −26.50 (/0.89) %
- Least-Squares adjusted Mean (n/Std error), percent change from baseline LDL-C (g.28650A > G G/G): −27.19 (/2.65) %
- mean LDL-C change from baseline (EASE cohort, heterozygous for the minor allele of g.−18C>A (298/1195)): 27.8%
- mean LDL-C change from baseline (EASE cohort, homozygous for the common allele of g.−18C>A (n=875/1195)): 24.2%
- mean change in LDL-C (EASE cohort, homozygous for the minor allele of g.−18C>A (n=22/1195)): 27.3%
- Least-Squares (adjusted) Mean (n,/Stderr), percent change in LDL-C (g.-18C > A C/A): −33.98 (62/4.05) %
- Least-Squares (adjusted) Mean (n,/Stderr), percent change in LDL-C (g.-18C > A C/C): −16.85 (177/2.40) %
